Results on 2 compounds are retold here after patent US11673853B2, “Small molecule AMPK activators” (University of Pittsburgh—Of the Commonwealth System of …, priority 2016, dated 2023).

Experiment [1] has as its system mice. The experiment is described as follows: LPS pneumonia model. It counts as in vivo. The settings on record: 2 or 10 mg/kg i.p., LPS 3 mg/kg i.t., 18 h. The method, then: FIG. 8. Compound 12 (2 or 10 mg/kg) was administered to mice though an i.p. injection, and mice were immediately challenged with LPS (E. coli, 3 mg/kg, i.t.) or without (control, CON) for an additional 18 h. Mice were then euthanized and lungs were lavaged with saline, harvested, and then homogenized. Lavage protein (H), cell counts (I) and cytokine secretions (E-G) were measured. Lungs were homogenized before being assayed by immunoblotting. The data are representative of data from n=5-6 mice/group, *P<0.05 versus vehicle. Serum cytokines (A-C) and peritoneal bacteria (D) were also measured.
FIG. 11. (A-B.) C57BL6 mice were administered i.p. vehicle, 0.08, 0.4, 2 or 10 mg/kg of Compound 23. After 10 min, mice were given LPS (E. coli, 3 mg/kg) through an i.p. injection and, after 2 h, mice were euthanized and blood collected for IL-6 and TNFα measurements. Shown in panels (A-B.) are the cytokine levels as a function of drug dose. The data represent n=3 mice/group at each dose. (C-G) Compound 23 (2 or 10 mg/kg) was administered to mice though an i.p. injection, and mice were immediately challenged with LPS (E. coli, 3 mg/kg, i.t.) or without (control, CON) for an additional 18 h. Mice were then euthanized and lungs were lavaged with saline, harvested, and then homogenized. Lavage protein (C), cell counts (D) and cytokine secretions (E-G) were measured. The data are representative of data from n=5 mice/group, *P<0.05 versus vehicle.
(§1) Compound 12 was tested in two pneumonia model using Pseudomonas or LPS endotoxin.
Compound 23 was tested in a sepsis model. Compound 23 was administered to mice at various doses through an i.p. injection, and 10 min later, mice were given LPS (E. coli; 3 mg/kg i.p.). After 2 h, mice were euthanized and blood was collected and assayed for IL-6 and TNFα cytokine levels. […] Finally, Compound 23 was tested in a pneumonia model using LPS endotoxin. […] Thus Compound 23 protects the lung against LPS induced lung injury.

Experiment [2] relates to mice. Put plainly: Pseudomonas (PA103) pneumonia model. It counts as in vivo. To be noted: 2 or 10 mg/kg i.p., PA103 i.t., 18 h. The method, then: FIG. 7. Compound 12 (2 or 10 mg/kg) was administered to mice though an i.p. injection, and mice were immediately challenged with P. aeruginosa (strain PA103, 1.5*10^4 cfu/mouse, i.t.) or without (control, CON) for an additional 18 h. Mice were then euthanized and lungs were lavaged with saline, harvested, and then homogenized. Lavage protein, cell counts, bacterial count and cytokine secretions (A-C) were measured. Lungs were homogenized before being assayed by immunoblotting. The data are representative of data from n=5-6 mice/group, *P<0.05 versus vehicle.
as §1

Experiment [3] relates to mice. The experiment is described as follows: Cecal ligation and puncture (CLP)-induced sepsis model. It counts as in vivo. The settings on record: 10 mg/kg i.p., 24 h. The method, then:
FIG. 6. Mice were anesthetized prior to the cecal ligation and puncture (CLP) procedure. Compound 12 (10 mg/kg) was then administered immediately afterwards through an intraperitoneal (i.p.) injection. After 24 h, mice were euthanized and blood was collected for assays of IL-6, TNF, and IL1-β levels. Peritoneal fluid was obtained for determination of bacterial counts after CLP in mice. The lungs were also lavaged with saline, harvested, and then homogenized. Lavage cytokine secretion (C-E), protein (A), cell counts (B) were measured. The data represent n=4-5 mice/group, *P<0.05 Compound 12 versus vehicle. Presence of AMPK and pAMPK was also determined (F).
Compound 12 was examined in a model of cecal ligation and puncture (CLP)-induced sepsis.

Experiment [4] concerns AMPKα1 and AMPKα2 mRNA. Put plainly: AMPK mRNA analysis in Beas2b cells. It counts as cell-based, Human. To be noted: glucose-free media, 18 h. The method, then:
FIG. 4. (A) Beas2b cells were cultured in DMEM 2% media with glucose for 24 h before switching to glucose-free media. Cells were then exposed to Compound 12 in a dose dependent manner for 18 h before being collected for immunoblotting. (B) Beas2b cells were cultured in DMEM 2% media with glucose for 24 h before Compound 12 treatment in a dose dependent manner. After 18 h, cells were then collected for immunoblotting. (C) Beas2b cells were cultured in DMEM 2% media with glucose for 24 h before switching to glucose-free media. Cells were then exposed to Compound 12 for 18 h before being collected for mRNA analysis. (D) 50K PBMC cells were cultured in 96 well plates before being exposed to Compound 12 for 4 h. Cells were then treated with LPS (10 ng/ml) for additional 2 h. Media were then collected and IL-1b concentration was determined by ELISA.
A SAR study was performed by constructing analogs of Compound 1. […] Compound 12 was further tested in PBMCs. Briefly, PBMCs were treated with Compound 12 at various concentrations for 4 h before exposure to LPS (10 ng/ml) for 2 h.

Experiment [5] has as its system High-fat diet fed C57BL6J mice. The experiment is described as follows: Acute oral dosing study in high-fat diet fed mice. It counts as in vivo.
Experiment [6] deals with PBMC cells. Put plainly: Cytokine array of LPS-treated PBMC cells. It counts as cell-based, human. The settings on record: 5 μM 18 h, then LPS 100 ng/ml 4 h. The method, then: FIG. 10. (A) 50K PBMC cells were cultured in 96 well plates before being exposed to Compound 23 for 18 h. Cells were then treated with LPS (10 ng/ml) for additional 4 h. Media were then collected and TNF and IL-1b concentration were determined by ELISA. (B) PBMC cells (1 mL at 1.0×10^6/ml) were treated with Compound 23 (5 μM) for 18 h. Cells were then treated with 100 ng/ml LPS for 4 h. Cytokine release was monitored by the human cytokine array (R&D systems). The results from a cytokine array dot blot were quantitated and graphed.
Compound 23 was tested in in vitro inflammatory assays. 50K PBMC cells were cultured in 96 well plates before being exposed to Compound 23 for 18 h. Cells were then treated with LPS (10 ng/ml) for additional 4 h. Media were then collected and assayed for TNF and IL-1b. […] Cytokine arrays were used to profile which cyotokine/chemokines were regulated by Compound 23.

With `OC(COc1ccc(F)cc1)CN(Cc1ccccc1)Cc1ccccc1` (centres unmarked) [Compound 12], in experiment [1], the lavage cell counts result was “significantly decreased”, the lavage cytokine release result was “significantly decreased” and the lavage protein concentration result is recorded as “significantly decreased”. In addition, in experiment [1] (immunoblotting), the “pAMPK levels within the lung tissue” value is listed as “effectively increased”. In experiment [2], the lavage bacterial counts entry was “without affecting lavage bacterial counts”, the lavage cell counts result is listed as “substantially decreased” and the lavage protein concentration entry is “substantially decreased”. The lavage proinflammatory cytokines entry in experiment [2] (dose dependent) is given as “effectively reduces”. Also, in experiment [2] (immunoblotting), the “pAMPK levels within the lung tissue” value is reported as “drastically increasing”. In experiment [3], the “CLP-induced lung injury (BAL cytokines, protein and cell counts)” value is “effectively reduce severities”; the “CLP-induced secretion of circulating proinflammatory cytokines (IL-6, TNF, IL1-β)” value is on record as “significantly attenuated”. Moreover, the bacterial count result in experiment [3] (peritoneal fluid) is “without affecting bacterial count”. Moreover, the “mRNA levels of both AMPKα1 and AMPKα2” value in experiment [4] is “effectively decreased”.
`OC(COc1ccc(C(F)(F)F)cc1)CN(Cc1ccccc1)Cc1ccccc1` (centres unmarked) [Compound 23]: in experiment [1], the lavage cell counts entry is recorded as “substantially decreased”, the lavage cytokine release entry is given as “effectively reduces” and the lavage protein concentration entry is given as “substantially decreased”. Besides, the “glucose tolerance (intraperitoneal glucose tolerance test)” value in experiment [5] (1 g/kg body weight glucose, data not shown) is listed as “no difference in glucose tolerance”. In addition, the “body weight at the time of study” value in experiment [5] (two oral doses (AICAR 200 mg/kg, BC1618 20 mg/kg)) was “no differences in body weight”. Also, the “reduction of fasting plasma glucose compared to vehicle” value in experiment [5] (two oral doses (AICAR 200 mg/kg, BC1618 20 mg/kg), 2 h after second dose, P=0.08) is 25%. The “cytokines/chemokines regulated (cytokine array)” value in experiment [6] is “decreases CD40, GMCSF, IL-1b, IL-1ra, IL-2, IL-12, IL-13, ITAC and TNF”.
